Test results taken from the NIST ThermoML archive (doi:10.1016/j.jct.2019.02.019).
Numbers after ± are expanded uncertainties.

Assay: xn = mol fraction of the nth substance listed
Settings: 101 kPa, Liquid; for viscosity: Capillary tube (Ostwald / Ubbelohde) method; for mass density: Vibrating tube method

CN(CCO)CCO [N-methyldiethanolamine] + NCCO
Settings | mass density, 293.15 K [kg/m3] | mass density, 303.15 K [kg/m3] | mass density, 313.15 K [kg/m3] | mass density, 323.15 K [kg/m3] | viscosity, 293.15 K [mPa·s] | viscosity, 303.15 K [mPa·s] | viscosity, 313.15 K [mPa·s] | viscosity, 323.15 K [mPa·s]
x1 = 0.1001 | 1021.71 ± 1 | 1013.23 ± 1 | 1005.13 ± 1 | 997.1 ± 1 | 32.9 ± 1.4 | 19.84 ± 0.84 | 12.83 ± 0.54 | 8.4 ± 0.35
x1 = 0.2006 | 1025.79 ± 1 | 1017.39 ± 1 | 1009.3 ± 1 | 1001.26 ± 1 | 43.27 ± 1.8 | 25.18 ± 1.1 | 15.97 ± 0.66 | 10.48 ± 0.44
x1 = 0.3 | 1029.07 ± 1 | 1020.72 ± 1 | 1012.66 ± 1 | 1004.69 ± 1 | 52.78 ± 2.2 | 30.53 ± 1.3 | 18.92 ± 0.78 | 12.49 ± 0.52
x1 = 0.3998 | 1031.69 ± 1 | 1023.42 ± 1 | 1015.36 ± 1 | 1007.45 ± 1 | 62.64 ± 2.6 | 35.8 ± 1.5 | 21.86 ± 0.9 | 14.3 ± 0.59
x1 = 0.4994 | 1033.82 ± 1 | 1025.62 ± 1 | 1017.61 ± 1 | 1009.72 ± 1 | 71.4 ± 2.9 | 40.6 ± 1.7 | 24.53 ± 1 | 15.83 ± 0.65
x1 = 0.5997 | 1035.58 ± 1 | 1027.46 ± 1 | 1019.48 ± 1 | 1011.68 ± 1 | 79.47 ± 3.3 | 45.11 ± 1.9 | 26.97 ± 1.1 | 17.35 ± 0.71
x1 = 0.6977 | 1037.09 ± 1 | 1029.04 ± 1 | 1021.11 ± 1 | 1013.34 ± 1 | 86.28 ± 3.6 | 48.61 ± 2 | 29.05 ± 1.2 | 18.6 ± 0.76
x1 = 0.7996 | 1038.43 ± 1 | 1030.43 ± 1 | 1022.52 ± 1 | 1014.79 ± 1 | 92.9 ± 3.9 | 52.06 ± 2.1 | 30.87 ± 1.3 | 19.64 ± 0.8
x1 = 0.8995 | 1039.57 ± 1 | 1031.61 ± 1 | 1023.72 ± 1 | 1016.04 ± 1 | 98.21 ± 4.1 | 54.8 ± 2.2 | 32.88 ± 1.3 | 20.56 ± 0.84
x1 = 1 | 1040.5 ± 1 | 1032.6 ± 1 | 1024.76 ± 1 | 1017.12 ± 1 | 103.04 ± 4.3 | 57.28 ± 2.3 | 33.94 ± 1.4 | 21.31 ± 0.87

CN(CCO)CCO [N-methyldiethanolamine] + CCO
Settings | mass density, 293.15 K [kg/m3] | mass density, 303.15 K [kg/m3] | mass density, 313.15 K [kg/m3] | mass density, 323.15 K [kg/m3] | viscosity, 293.15 K [mPa·s] | viscosity, 303.15 K [mPa·s] | viscosity, 313.15 K [mPa·s] | viscosity, 323.15 K [mPa·s]
x1 = 0.1003 | 838.89 ± 2.1 | 830.03 ± 2 | 820.48 ± 2 | 812.93 ± 2 | 1.95 ± 0.09 | 1.54 ± 0.07 | 1.27 ± 0.06 | 1.03 ± 0.05
x1 = 0.2001 | 879.56 ± 1.8 | 869.79 ± 1.8 | 860.28 ± 1.8 | 852.57 ± 1.8 | 3.25 ± 0.15 | 2.45 ± 0.11 | 1.94 ± 0.09 | 1.52 ± 0.07
x1 = 0.3001 | 913.83 ± 1.6 | 903.04 ± 1.6 | 893.56 ± 1.6 | 885.65 ± 1.6 | 5.36 ± 0.24 | 3.88 ± 0.17 | 2.95 ± 0.13 | 2.25 ± 0.1
x1 = 0.3998 | 941.42 ± 1.4 | 930.67 ± 1.4 | 921.43 ± 1.4 | 913.45 ± 1.4 | 8.77 ± 0.4 | 6.08 ± 0.27 | 4.5 ± 0.2 | 3.32 ± 0.14
x1 = 0.5 | 964.94 ± 1.3 | 954.51 ± 1.3 | 945.44 ± 1.3 | 937.39 ± 1.3 | 14.09 ± 0.63 | 9.41 ± 0.41 | 6.64 ± 0.29 | 4.79 ± 0.21
x1 = 0.5999 | 984.81 ± 1.2 | 974.63 ± 1.3 | 965.86 ± 1.3 | 957.92 ± 1.3 | 21.94 ± 0.97 | 14.14 ± 0.62 | 9.68 ± 0.42 | 6.79 ± 0.29
x1 = 0.7 | 1001.91 ± 1.2 | 992.31 ± 1.2 | 983.56 ± 1.2 | 975.64 ± 1.2 | 33.37 ± 1.5 | 20.8 ± 0.9 | 13.69 ± 0.59 | 9.4 ± 0.4
x1 = 0.8001 | 1016.76 ± 1.2 | 1007.51 ± 1.2 | 999.13 ± 1.2 | 991.3 ± 1.2 | 49.36 ± 2.2 | 29.56 ± 1.3 | 18.85 ± 0.8 | 12.44 ± 0.53
x1 = 0.9005 | 1029.58 ± 1.1 | 1020.96 ± 1.1 | 1012.93 ± 1.1 | 1005.16 ± 1.1 | 72.94 ± 3.2 | 41.84 ± 1.8 | 25.38 ± 1.1 | 16.52 ± 0.7
x1 = 1 | 1040.5 ± 1 | 1032.6 ± 1 | 1024.76 ± 1 | 1017.12 ± 1 | 103.04 ± 4.3 | 57.28 ± 2.3 | 33.94 ± 1.4 | 21.31 ± 0.87

NCCO [2-aminoethan-1-ol] + CCO
Settings | mass density, 293.15 K [kg/m3] | mass density, 303.15 K [kg/m3] | mass density, 313.15 K [kg/m3] | mass density, 323.15 K [kg/m3] | viscosity, 293.15 K [mPa·s] | viscosity, 303.15 K [mPa·s] | viscosity, 313.15 K [mPa·s] | viscosity, 323.15 K [mPa·s]
x1 = 0.1002 | 816.84 ± 1.5 | 808.87 ± 1.5 | 799.33 ± 1.5 | 791.69 ± 1.4 | 1.56 ± 0.07 | 1.27 ± 0.05 | 1.05 ± 0.04 | 0.87 ± 0.04
x1 = 0.1999 | 843.68 ± 1.4 | 834.94 ± 1.4 | 825.34 ± 1.4 | 817.35 ± 1.4 | 2.12 ± 0.09 | 1.68 ± 0.07 | 1.36 ± 0.06 | 1.11 ± 0.05
x1 = 0.3002 | 868.92 ± 1.4 | 860.42 ± 1.4 | 850.66 ± 1.4 | 842.49 ± 1.4 | 2.89 ± 0.12 | 2.23 ± 0.09 | 1.77 ± 0.07 | 1.42 ± 0.06
x1 = 0.4004 | 893.15 ± 1.4 | 884.54 ± 1.4 | 874.69 ± 1.4 | 866.58 ± 1.4 | 3.96 ± 0.17 | 2.98 ± 0.13 | 2.29 ± 0.1 | 1.8 ± 0.08
x1 = 0.5 | 916.18 ± 1.4 | 907.59 ± 1.4 | 897.82 ± 1.4 | 889.61 ± 1.4 | 5.44 ± 0.23 | 3.96 ± 0.17 | 2.95 ± 0.12 | 2.28 ± 0.1
x1 = 0.5998 | 938.02 ± 1.3 | 929.38 ± 1.3 | 919.84 ± 1.3 | 911.88 ± 1.3 | 7.45 ± 0.32 | 5.23 ± 0.22 | 3.8 ± 0.16 | 2.87 ± 0.12
x1 = 0.7 | 959.13 ± 1.3 | 950.81 ± 1.3 | 941.56 ± 1.3 | 933.03 ± 1.3 | 10.19 ± 0.43 | 6.92 ± 0.29 | 4.87 ± 0.2 | 3.6 ± 0.15
x1 = 0.7996 | 978.96 ± 1.3 | 970.81 ± 1.3 | 961.95 ± 1.3 | 953.82 ± 1.3 | 13.74 ± 0.58 | 9.05 ± 0.38 | 6.17 ± 0.26 | 4.48 ± 0.19
x1 = 0.8994 | 998.41 ± 1.3 | 989.98 ± 1.3 | 981.44 ± 1.3 | 973.33 ± 1.3 | 18.22 ± 0.76 | 11.74 ± 0.49 | 7.74 ± 0.32 | 5.48 ± 0.23
x1 = 1 | 1016.3 ± 1 | 1008.02 ± 1 | 999.98 ± 1 | 991.97 ± 1 | 23.4 ± 0.95 | 14.71 ± 0.6 | 9.77 ± 0.4 | 6.83 ± 0.28
